Reference: US20220362182A1, “METHODS FOR REVERSING HEPATIC STEATOSIS” (BRIGHTSEED, INC., priority 2020, published 2022)
“Also recorded” adds a separate entry of the source.

Legend:
HNF4α [1] = conditions: previous finding, cited from earlier work
HNF4α [2] = target: T1, HNF4α (Homo sapiens, UniProt P41235); assay: DARTS assay (HNF4α protease sensitivity) in HepG2 cells; assay type: binding; parameters: Total cell protein was extracted; endogenous in cells; host or cells: HepG2 cells; conditions: 40 or 80 μM for 16 h, subtilisin
T1 sequence (P41235 1-474): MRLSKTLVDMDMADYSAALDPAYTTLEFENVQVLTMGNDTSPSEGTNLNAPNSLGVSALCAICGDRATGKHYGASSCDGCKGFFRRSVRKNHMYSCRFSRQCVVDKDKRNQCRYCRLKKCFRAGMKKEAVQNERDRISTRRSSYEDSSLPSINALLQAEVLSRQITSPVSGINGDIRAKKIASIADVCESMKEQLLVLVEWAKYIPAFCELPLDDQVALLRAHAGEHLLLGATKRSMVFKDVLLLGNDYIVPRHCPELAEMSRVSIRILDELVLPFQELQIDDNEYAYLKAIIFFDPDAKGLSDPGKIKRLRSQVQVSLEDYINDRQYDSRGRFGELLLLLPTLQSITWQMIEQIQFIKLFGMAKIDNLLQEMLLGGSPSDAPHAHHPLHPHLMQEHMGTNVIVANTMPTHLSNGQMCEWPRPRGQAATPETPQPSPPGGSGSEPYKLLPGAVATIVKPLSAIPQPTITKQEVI
Experimental: DARTS assays were conducted as described in the art. HepG2 cells were treated with DMSO, BI6015, NCT, NFT at a concentration of 40 or 80 μM for 16 hr. Total cell protein was extracted and measured by BCA protein assay (Thermo Scientific). Each sample was split into two aliquots for proteolysis without (−) or with (+) Subtilisin (Sigma-Aldrich). Forty […] of cell lysate was incubated with or without protease (40 ng/ml subtilisin) for 35 min at room temperature.
(§1) Whole-cell extracts were prepared by incubation in RIPA buffer (Invitrogen) containing protease inhibitors (Calbiochem, San Diego, Calif.). Protein ([…]) was separated on 12% or 16% Tri-Glycine gels (Invitrogen) and transferred to Immobilon P membrane (0.2 μm pore, Millipore). After 1 h in phosphate-buffered saline-Tween (PBST) with 3% milk, membrane was incubated with antibodies to HNF4α (mouse, Novus, 1:1000), LC3B (rabbit, Novus, 1:500), p62 (SQSTM1, mouse, Santa Cruz, 1:1000) or β-actin (mouse, Santa Cruz, 1:2000), followed by secondary antibody conjugated to horseradish peroxidase (1:5000, Jackson Immune).

T6PNE cells = assay: fat clearance assay in palmitate-treated T6PNE cells (Oil Red O, Nile Red, triglyceride); assay type: cell-based, human; conditions: for effect on fat clearance induced by NCT: palmitate, inhibitor or siRNA plus NCT; for fat clearance (stored fat by Oil Red O and Nile Red staining): 0.25 mM palmitate for 2 days
Experimental: Oil red O and Nile Red staining were used to measure lipid accumulation. Oil Red O staining was done as known in the art. Briefly, fixed cells were incubated with Oil Red O solution (Poly Scientific) for 3 h, followed by photomicrography (Olympus, IX71). For Nile Red staining, dye (1: 500 in PBS from 1 mg/ml in ethanol stock, Sigma) was added for 30 mins and DAPI added for 10 mins at room temperature. Quantification of Nile Red staining was done with a Celigo imaging cytometer (Nexcelom Bioscience). More than 4000 cells were analyzed for each quantification. The number of Nile Redpositive cells was normalized to the DAPI-positive cell number for each well and fold change was calculated relative to a DMSO control well.
Palmitate (150 mM) (Sigma-Aldrich) was prepared in 50% ethanol and precomplexed with 15% fatty acid-free BSA (Research Organics, Cleveland, Ohio, USA) in a 37 C water shaker. BSA-precomplexed palmitate was used as a 12 mM stock solution for all assays with a final concentration of 0.25 mM palmitate in cell culture medium.
siRNAs were purchased from Ambion. For transfections, 24 μL of each siRNA (1 μM stock) was mixed with 90 μL of a 1:100 dilution of Lipofectamine RNAi MAX (Invitrogen, Waltham, Mass., USA) in Opti-MEM. Transfection was done in 24 well plates (Thermo Fisher Scientific, Waltham, Mass., USA), by incubation with cells for 30 min. at room temperature. One day after transfection, cells were transferred to 96 well plates (2000 cells per well) and incubated at 37° C. for an additional day. Forty-eight hours after transfection, either palmitate-BSA complex or BSA control plus or minus compounds was added for 2 days. For validation of siRNAs, transfected cells were harvested for RNA purification and QPCR for each gene 2 days after transfection.
The bicinchoninic acid (BCA) protein assay kit assay (Thermo scientific) was used to measure protein amount for DART, Western blotting and TG assays. Absorbance at 550 nm was determined using a plate reader.

human insulin promoter = assay: modified insulin promoter assay repressed with palmitate; assay type: cell-based; conditions: insulin promoter activity repressed with palmitate
Experimental: Alverine and benfluorex were ascertained in a modification of the insulin promoter assay in which the level of insulin promoter activity was repressed with palmitate. […] Cells were treated with 0.25 mM palmitate for 2 days in the presence and absence of NCT or NFT (10 μM).

[3] = clinical trials for type 2 diabetes; cited from earlier work
HNF4α [4] = target: T1, HNF4α; assay: T6PNE insulin promoter assay (human insulin promoter-GFP transgene); assay type: cell-based; parameters: endogenous in cells; host or cells: T6PNE cells; conditions: T6PNE cells, GFP-positive cells relative to DMSO
Experimental: The T6PNE insulin promoter assay has been described previously and was performed here with slight modifications as follows: T6PNE cells were seeded at 200 cells per well in 384-well tissue culture plates (Greiner Bio-One) in the presence of 0.5 μM tamoxifen. Compounds described herein in DMSO were dispensed with an Echo 555 Acoustic Liquid Handler (Beckman Coulter). Three days after compound addition, cells were fixed in 4% paraformaldehyde (USBio) for 15 min and stained with DAPI (0.167 μg/ml, Invitrogen). Blue (DAPI) and green (GFP) channels were imaged using a Celigo imaging cytometer (Nexcelom Bioscience). The number of GFPpositive cells was normalized to the DAPI-positive cell number and fold change calculated relative to the DMSO control.
T6PNE cells were maintained in RPMI (5.5mM glucose, Corning) supplemented with 10% fetal bovine serum (FBS, Sigma-Aldrich) and 1% penicillin-streptomycin (pen-strep, Gibco). Cells were maintained in 5% CO2 at 37° C. For the insulin promoter assay, 0.5 μM tamoxifen (Sigma-Aldrich) was added to T6PNE cell culture media. HepG2 or HeLa cells were cultured in DMEM (high glucose, Corning) supplemented with 10% FBS and 1% pen-strep and maintained at 5% CO2, 37° C.

CYP26A1 mRNA = CYP26A1 mRNA in T6PNE cells; assay type: cell-based, human; conditions: 2 days, 0.25 mM palmitate, NCT 10 μM, 4-OH-RA 20 μM
Experimental: Quantitative PCR (Q-PCR) from in vitro cell culture experiments used total RNA purified using RNeasy Kits (Qiagen). For liver tissue samples, total RNA was isolated using Trizol (Invitrogen) and prepared for RNAseq (mouse liver DMSO and NCT, N=3). cDNA was amplified using 3 μg of total RNA using qScript cDNA SuperMix (Quanta BioSciences, Beverly, Mass., USA). QPCR analysis was performed using SYBR® Select Master Mix (Applied Biosystems) and ABI 7900HT (Applied Biosystems, Thermo Fisher Scientific). The Ct values of mRNA expression were then normalized to the 18 s rRNA values and are expressed as fold change over samples from mice fed normal chow for in vivo experiments or DMSO controls for cell culture experiments.

p62 = p62 Western blot in T6PNE cells; assay type: cell-based, human; conditions: NCT 10 μM, RA 10 μM, fenretinide
Experimental: as §1

dihydroceramides = assay: lipidomic analysis of ceramides and dihydroceramides in T6PNE cells; assay type: cell-based, human
Experimental: Ceramides and dihydroceramides were measured in the UCSD Lipidomics Core Facility as previously described (Quehenberger et al.). Briefly, samples were extracted using the butanol: methanol (BUME) method. The lipid layer was collected and run on a Thermo-Vanquish UPLC (Thermo Scientific) with a Cortecs T3 (C18), 2.1 mm×150 mm; 1.8 uT3 column and a binary solvent system. Mass spectrometry employed a Thermo Q Exactive instrument with MS/MS data dependent acquisition scan mode and LipidSearch software (Thermo Fisher Scientific).

Cc1ccc([N+](=O)[O-])cc1S(=O)(=O)n1c(C)nc2ccccc21 [BI6015]
hepatic steatosis (HNF4α [1]; in vitro and in vivo): caused hepatic steatosis in vitro and in vivo | HNF4α expression in the liver (HNF4α [1]; in vivo): caused loss of HNF4a expression in the liver; also recorded: caused loss of HNF4α expression in the liver | HNF4α proteolytic sensitivity / conformational change (HNF4α [2]): induced a conformational change in HNF4α

O=C(Oc1nsnc1N1CCCCC1)N1CCCCC1 [Lalistat 2]
effect on fat clearance induced by NCT (T6PNE cells): eliminated the ability of N-trans-caffeoyltyramine to effect fat clearance; also recorded: inhibited the ability of NCT to promote fat clearance | effect on fat clearance induced by NCT (T6PNE cells; listed as Lalistat2): inhibits the effect of NCT on fat clearance

CC(Cc1cccc(C(F)(F)F)c1)NCCOC(=O)c1ccccc1 (centres unmarked) [benfluorex, reference compound]
fatty acid-mediated repression of the human insulin promoter (human insulin promoter): reversed the fatty acid-mediated repression of the human insulin promoter | HbA1c [3]: effective at reducing HbA1c | insulin promoter activity / HNF4α activation (HNF4α [4]): relatively weak activators; also recorded: fairly weak HNF4α activators

CCC(CC)C(c1ccc(Nc2nc3ccccc3s2)cc1)n1cncn1 (centres unmarked) [talarazole]
effect on fat clearance induced by NCT (T6PNE cells): inhibited fat clearance by NCT

CCCCCCCCCCCCCC1=C([C@H](O)[C@@H](CO)NC(=O)CCCCCCC)C1 [GT-11, N-[(1R,2S)-2-hydroxy-1-hydroxymethyl-2-(2-tridecyl-1-cyclopropenyl)ethyl] octanamide]
fat clearance (stored fat by Oil Red O and Nile Red staining) (T6PNE cells): strongly positive; also recorded: increase fat clearance

dihydroceramide
fat clearance (stored fat by Oil Red O and Nile Red staining) (T6PNE cells): active at inducing fat clearance

CC1=C(/C=C/C(C)=C/C=C/C(C)=C/C(=O)O)C(C)(C)CCC1O (centres unmarked) [4-OH RA, reference compound]
fat clearance (stored fat by Oil Red O and Nile Red staining) (T6PNE cells): induced fat clearance from T6PNE cells | CYP26A1 mRNA level (CYP26A1 mRNA): induced an increase in CYP26A1 mRNA

CCCCCCCCCCCCC/C=C/[C@@H](O)[C@@H](N)COP(=O)(O)O [S1P, sphingosine-1-phosphate]
fat clearance (stored fat by Oil Red O and Nile Red staining) (T6PNE cells): did not have any effect on fat storage; also recorded: neither S1P nor FTY720 had any effect on fat clearance

CCCCCCCCc1ccc(CCC(N)(CO)CO)cc1 [FTY720]
fat clearance (stored fat by Oil Red O and Nile Red staining) (T6PNE cells): neither S1P nor FTY720 had any effect on fat clearance

CCN(CCCc1ccccc1)CCCc1ccccc1 [alverine, reference compound]
fatty acid-mediated repression of the human insulin promoter (human insulin promoter): reversed the fatty acid-mediated repression of the human insulin promoter | insulin promoter activity / HNF4α activation (HNF4α [4]): relatively weak activators; also recorded: fairly weak HNF4α activators

Nn1nnc2ccccc21 [ABT]
effect on fat clearance induced by NCT (T6PNE cells): inhibited fat clearance by NCT

CC1=C(/C=C/C(C)=C/C=C/C(C)=C/C(=O)Nc2ccc(O)cc2)C(C)(C)CCC1 [Fenretinide, fenretinide, reference compound]
fat clearance (stored fat by Oil Red O and Nile Red staining) (T6PNE cells): strongly positive | fat clearance (stored fat by Oil Red O and Nile Red staining) (T6PNE cells; listed as fenretinide): induced fat clearance from T6PNE cells | p62 protein expression normalized to actin (p62): had a statistically significant effect | dihydroceramide production (dihydroceramides; 2 days after treatment): induced multiple identical dihydroceramides | ceramide (Cer)/dihydroceramide (DH-Cer) ratio (dihydroceramides; NCT+RA 10 μM, fenretinide 5 μM): substantial decrease
